A value given as a limit tells only on which side of the number the result lay.

The target in experiment [1] is T1, Myosin light chain kinase family member 4 (Homo sapiens) (UniProt Q86YV6).
T1 sequence (whole entry): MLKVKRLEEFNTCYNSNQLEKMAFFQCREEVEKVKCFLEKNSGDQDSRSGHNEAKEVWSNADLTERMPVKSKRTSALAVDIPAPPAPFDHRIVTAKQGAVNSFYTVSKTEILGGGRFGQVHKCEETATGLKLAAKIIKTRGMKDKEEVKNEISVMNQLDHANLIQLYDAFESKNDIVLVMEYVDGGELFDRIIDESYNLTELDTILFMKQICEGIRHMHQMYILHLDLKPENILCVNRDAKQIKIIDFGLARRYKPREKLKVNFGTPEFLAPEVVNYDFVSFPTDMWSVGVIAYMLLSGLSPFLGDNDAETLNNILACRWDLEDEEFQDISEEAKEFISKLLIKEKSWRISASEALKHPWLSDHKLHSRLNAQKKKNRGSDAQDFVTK
Nature of the experiment: Selectivity interaction (LanthaScreen Eu Kinase Binding Assay) EUB0001632a MYLK4. The conditions noted are these: at 10 µM.

The target of experiment [2] is Beta-1 adrenergic receptor (Homo sapiens, UniProt P08588). As to the kind of experiment: Selectivity interaction (Eurofins CEREP Diversity Profile (receptors and ion channels)) EUB0000279b ADRB1. Conditions: at 10 µM.
Beta-1 adrenergic receptor, sequence (P08588 whole entry, looked up): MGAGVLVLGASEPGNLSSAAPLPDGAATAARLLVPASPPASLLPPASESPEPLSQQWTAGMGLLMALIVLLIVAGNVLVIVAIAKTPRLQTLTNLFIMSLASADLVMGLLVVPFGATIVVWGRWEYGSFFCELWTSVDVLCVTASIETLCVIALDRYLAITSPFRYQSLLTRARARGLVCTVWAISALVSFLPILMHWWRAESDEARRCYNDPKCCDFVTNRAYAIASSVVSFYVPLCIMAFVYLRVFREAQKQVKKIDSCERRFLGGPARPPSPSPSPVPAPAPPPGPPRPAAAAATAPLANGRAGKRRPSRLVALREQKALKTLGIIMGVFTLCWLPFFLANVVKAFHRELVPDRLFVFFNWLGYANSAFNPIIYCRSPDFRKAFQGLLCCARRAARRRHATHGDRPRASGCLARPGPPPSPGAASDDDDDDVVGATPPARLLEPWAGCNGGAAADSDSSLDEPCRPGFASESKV
The target in experiment [3] is Cyclin-dependent kinase 9 (Homo sapiens, UniProt P50750). Nature of the experiment: Selectivity interaction (KinomeScan (DiscoverX)) EUB0000666a CDK9. The conditions noted are these: at 10 µM.
Cyclin-dependent kinase 9, sequence (P50750 whole entry): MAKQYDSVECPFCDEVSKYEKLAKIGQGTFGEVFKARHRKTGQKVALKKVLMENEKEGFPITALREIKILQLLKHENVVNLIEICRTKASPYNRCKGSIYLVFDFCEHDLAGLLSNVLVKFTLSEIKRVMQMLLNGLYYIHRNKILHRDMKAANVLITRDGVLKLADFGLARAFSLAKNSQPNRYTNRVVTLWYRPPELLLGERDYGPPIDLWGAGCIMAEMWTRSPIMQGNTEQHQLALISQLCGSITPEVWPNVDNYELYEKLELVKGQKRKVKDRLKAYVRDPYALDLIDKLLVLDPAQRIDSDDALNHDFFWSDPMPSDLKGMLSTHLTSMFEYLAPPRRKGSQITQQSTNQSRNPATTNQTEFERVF
The target in experiment [4] is Protein kinase C delta type (Homo sapiens) (UniProt Q05655). Nature of the experiment: Selectivity interaction (ActivX KiNativ screen (kinase selectivity in THP-1 cell lysates)) EUB0000639a PRKCD. The experiment is classed as subcellular. Conditions: lysate.
Protein kinase C delta type (Homo sapiens), sequence (Q05655 whole entry, looked up): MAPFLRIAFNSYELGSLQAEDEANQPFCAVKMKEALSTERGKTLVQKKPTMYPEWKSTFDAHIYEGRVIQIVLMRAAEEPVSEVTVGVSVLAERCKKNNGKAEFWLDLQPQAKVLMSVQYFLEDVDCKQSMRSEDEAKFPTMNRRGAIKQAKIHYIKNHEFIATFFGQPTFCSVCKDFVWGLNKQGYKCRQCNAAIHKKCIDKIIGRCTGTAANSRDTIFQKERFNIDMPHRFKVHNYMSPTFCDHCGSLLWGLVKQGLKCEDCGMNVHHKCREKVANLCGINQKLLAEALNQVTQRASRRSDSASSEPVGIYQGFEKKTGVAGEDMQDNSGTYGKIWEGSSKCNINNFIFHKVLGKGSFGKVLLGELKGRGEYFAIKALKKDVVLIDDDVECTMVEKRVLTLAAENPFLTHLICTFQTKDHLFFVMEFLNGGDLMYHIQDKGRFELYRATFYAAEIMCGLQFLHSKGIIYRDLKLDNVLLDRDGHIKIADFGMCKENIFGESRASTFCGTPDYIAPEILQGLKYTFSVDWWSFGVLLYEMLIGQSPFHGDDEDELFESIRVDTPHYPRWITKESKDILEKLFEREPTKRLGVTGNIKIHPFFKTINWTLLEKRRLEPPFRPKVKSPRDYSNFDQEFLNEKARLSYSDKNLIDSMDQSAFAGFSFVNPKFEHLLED
Experiment [5] addresses T2, MAP/microtubule affinity-regulating kinase 4 (Homo sapiens) (UniProt Q96L34).
T2 sequence (whole entry): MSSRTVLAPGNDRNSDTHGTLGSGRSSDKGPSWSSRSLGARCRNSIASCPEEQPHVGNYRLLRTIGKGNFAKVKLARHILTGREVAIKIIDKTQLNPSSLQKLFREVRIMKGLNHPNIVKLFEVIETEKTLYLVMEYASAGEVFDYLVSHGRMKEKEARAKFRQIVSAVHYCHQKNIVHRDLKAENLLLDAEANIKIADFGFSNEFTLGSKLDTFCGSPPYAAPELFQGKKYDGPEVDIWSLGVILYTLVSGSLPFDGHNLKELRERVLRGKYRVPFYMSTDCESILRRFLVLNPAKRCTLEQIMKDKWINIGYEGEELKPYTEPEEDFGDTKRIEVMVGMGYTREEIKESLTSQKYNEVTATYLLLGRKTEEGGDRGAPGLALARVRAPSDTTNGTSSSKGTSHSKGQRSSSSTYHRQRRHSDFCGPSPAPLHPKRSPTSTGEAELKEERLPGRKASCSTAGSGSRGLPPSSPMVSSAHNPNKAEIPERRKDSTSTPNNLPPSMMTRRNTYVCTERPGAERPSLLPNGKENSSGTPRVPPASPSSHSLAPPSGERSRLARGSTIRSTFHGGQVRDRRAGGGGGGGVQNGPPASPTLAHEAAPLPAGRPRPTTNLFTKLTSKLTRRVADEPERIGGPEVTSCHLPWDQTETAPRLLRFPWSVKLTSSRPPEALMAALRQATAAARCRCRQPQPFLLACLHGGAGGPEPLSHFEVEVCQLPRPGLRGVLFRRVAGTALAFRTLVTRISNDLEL
Nature of the experiment: Selectivity interaction (Kinase panel (Carna Biosciences)) EUB0001542aTs MARK4. The conditions noted are these: at 1 µM.

For another experiment, the target named is Misshapen-like kinase 1 (Homo sapiens, UniProt Q8N4C8). As to the kind of experiment: Selectivity interaction (Upstate Kinase Profiler service (Millipore)) EUB0000056c MINK1. The conditions noted are these: at 1 µM.
Experiment [6] has as its target Cyclin-dependent kinase 4/cyclin D1 (Homo sapiens) (UniProt P11802+P24385). As to the kind of experiment: (§1) Selectivity interaction (KinomeScan (DiscoverX)) EUB0000618a CDK4. Format: protein-complex assay. The conditions noted are these: at 10 µM.
Experiment [7] deals with CDK4/Cyclin D3 (Homo sapiens) (UniProt P11802+P30281). The experiment is described as §1. The experiment is classed as protein-complex assay. Conditions: at 10 µM.
For experiment [8], the target named is Homeodomain-interacting protein kinase 3 (Homo sapiens, UniProt Q9H422). As to the kind of experiment: Selectivity interaction (KinomeScan (DiscoverX)) EUB0000092b HIPK3. Conditions: at 10 µM.
Homeodomain-interacting protein kinase 3, sequence (Q9H422 whole entry, looked up): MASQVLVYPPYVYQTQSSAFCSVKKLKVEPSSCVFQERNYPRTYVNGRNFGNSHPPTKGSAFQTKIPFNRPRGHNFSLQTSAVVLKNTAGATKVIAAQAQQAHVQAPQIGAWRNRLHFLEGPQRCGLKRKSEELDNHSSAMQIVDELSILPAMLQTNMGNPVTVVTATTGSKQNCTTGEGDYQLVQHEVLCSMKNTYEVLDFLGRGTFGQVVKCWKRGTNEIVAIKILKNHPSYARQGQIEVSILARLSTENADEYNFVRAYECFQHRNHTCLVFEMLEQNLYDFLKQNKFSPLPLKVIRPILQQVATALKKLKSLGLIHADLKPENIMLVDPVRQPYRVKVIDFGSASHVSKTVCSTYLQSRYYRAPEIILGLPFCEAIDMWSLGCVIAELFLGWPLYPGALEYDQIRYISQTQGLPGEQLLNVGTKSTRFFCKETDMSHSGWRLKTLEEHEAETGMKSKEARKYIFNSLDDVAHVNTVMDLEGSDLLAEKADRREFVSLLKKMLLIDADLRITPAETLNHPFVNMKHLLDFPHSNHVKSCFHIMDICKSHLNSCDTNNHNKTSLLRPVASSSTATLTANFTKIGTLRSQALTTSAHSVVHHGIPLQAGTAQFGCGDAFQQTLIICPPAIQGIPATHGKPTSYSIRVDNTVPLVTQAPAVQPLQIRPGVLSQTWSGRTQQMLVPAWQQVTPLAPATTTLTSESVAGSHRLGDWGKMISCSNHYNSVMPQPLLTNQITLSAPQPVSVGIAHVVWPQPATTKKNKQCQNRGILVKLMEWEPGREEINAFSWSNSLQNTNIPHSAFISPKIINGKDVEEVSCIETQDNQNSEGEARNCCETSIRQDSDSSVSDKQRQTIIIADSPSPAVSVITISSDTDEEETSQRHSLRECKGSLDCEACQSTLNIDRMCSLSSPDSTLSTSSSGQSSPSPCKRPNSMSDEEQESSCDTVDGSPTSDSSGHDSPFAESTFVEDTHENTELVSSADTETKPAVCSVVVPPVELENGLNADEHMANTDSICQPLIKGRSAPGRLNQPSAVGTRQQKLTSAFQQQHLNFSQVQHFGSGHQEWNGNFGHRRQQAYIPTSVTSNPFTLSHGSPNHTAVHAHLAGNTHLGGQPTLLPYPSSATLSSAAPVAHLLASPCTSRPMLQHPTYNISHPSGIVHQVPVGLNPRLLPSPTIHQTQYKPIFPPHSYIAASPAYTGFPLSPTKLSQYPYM
In experiment [9] the target is Atypical kinase COQ8A, mitochondrial (Homo sapiens, UniProt Q8NI60). Nature of the experiment: Selectivity interaction (Competition-binding assay (DiscoverX)) EUB0000229b ADCK3.
Atypical kinase COQ8A, mitochondrial, sequence (Q8NI60 whole entry): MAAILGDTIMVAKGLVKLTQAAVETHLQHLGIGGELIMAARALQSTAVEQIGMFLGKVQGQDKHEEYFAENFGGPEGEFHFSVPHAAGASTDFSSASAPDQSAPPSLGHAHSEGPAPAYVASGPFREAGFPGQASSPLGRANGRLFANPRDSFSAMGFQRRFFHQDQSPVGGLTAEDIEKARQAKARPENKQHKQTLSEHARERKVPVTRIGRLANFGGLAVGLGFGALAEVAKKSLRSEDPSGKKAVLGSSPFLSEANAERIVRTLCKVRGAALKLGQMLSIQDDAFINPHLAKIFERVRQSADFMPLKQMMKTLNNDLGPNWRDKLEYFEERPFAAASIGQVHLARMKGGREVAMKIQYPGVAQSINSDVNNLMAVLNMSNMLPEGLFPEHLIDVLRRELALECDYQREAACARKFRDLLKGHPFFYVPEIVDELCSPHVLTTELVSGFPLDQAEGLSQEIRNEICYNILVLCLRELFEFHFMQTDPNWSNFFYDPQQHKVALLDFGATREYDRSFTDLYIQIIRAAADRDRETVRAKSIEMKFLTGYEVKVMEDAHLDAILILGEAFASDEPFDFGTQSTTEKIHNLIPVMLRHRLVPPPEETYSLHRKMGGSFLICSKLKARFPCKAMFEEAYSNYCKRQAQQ
The target in experiment [10] is T3, Cyclin-dependent kinase 11A (Homo sapiens) (UniProt Q9UQ88).
T3 sequence (whole entry): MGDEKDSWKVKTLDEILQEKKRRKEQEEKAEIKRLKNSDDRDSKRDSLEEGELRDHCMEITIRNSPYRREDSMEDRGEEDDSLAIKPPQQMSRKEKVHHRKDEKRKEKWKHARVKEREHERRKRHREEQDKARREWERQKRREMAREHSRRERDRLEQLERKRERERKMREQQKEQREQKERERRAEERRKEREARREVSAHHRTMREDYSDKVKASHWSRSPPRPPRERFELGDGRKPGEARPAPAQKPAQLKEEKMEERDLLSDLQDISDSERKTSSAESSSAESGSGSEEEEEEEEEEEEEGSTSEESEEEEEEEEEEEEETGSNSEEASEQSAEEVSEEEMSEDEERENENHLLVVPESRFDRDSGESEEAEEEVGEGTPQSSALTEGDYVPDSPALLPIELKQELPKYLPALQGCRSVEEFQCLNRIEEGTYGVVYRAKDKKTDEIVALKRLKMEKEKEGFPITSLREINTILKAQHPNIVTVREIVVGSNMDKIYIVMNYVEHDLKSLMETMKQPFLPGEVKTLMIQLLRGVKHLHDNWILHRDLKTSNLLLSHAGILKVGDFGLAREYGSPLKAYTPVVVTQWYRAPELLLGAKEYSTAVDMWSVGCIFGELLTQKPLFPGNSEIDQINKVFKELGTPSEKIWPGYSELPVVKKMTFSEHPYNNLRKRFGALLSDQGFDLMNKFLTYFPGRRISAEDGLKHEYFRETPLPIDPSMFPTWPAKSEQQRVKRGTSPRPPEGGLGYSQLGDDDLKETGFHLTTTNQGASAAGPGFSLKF
As to the kind of experiment: Selectivity interaction (Kinase panel (KiNativ target engagement assay in Jurkat cells)) EUB0001635a CDK11A. The conditions noted are these: Selectivity number of off-targets 0.0, Selectivity number of targets 233.0, Source Knowledge https://www.sciencedirect.com/science/article/pii/S2451945619300674?via%3Dihub, at 1 µM. Format: cell-based.

The target in experiment [11] is Tyrosine-protein kinase JAK1 (Homo sapiens, UniProt P23458). Nature of the experiment: Selectivity interaction (Kinase panel (KiNativ target engagement assay in Jurkat cells)) EUB0001635a JAK1. Format: cell-based. The conditions noted are these: Selectivity number of off-targets 0.0, Selectivity number of targets 233.0, Source Knowledge https://www.sciencedirect.com/science/article/pii/S2451945619300674?via%3Dihub, at 1 µM.
Tyrosine-protein kinase JAK1, sequence (P23458 whole entry): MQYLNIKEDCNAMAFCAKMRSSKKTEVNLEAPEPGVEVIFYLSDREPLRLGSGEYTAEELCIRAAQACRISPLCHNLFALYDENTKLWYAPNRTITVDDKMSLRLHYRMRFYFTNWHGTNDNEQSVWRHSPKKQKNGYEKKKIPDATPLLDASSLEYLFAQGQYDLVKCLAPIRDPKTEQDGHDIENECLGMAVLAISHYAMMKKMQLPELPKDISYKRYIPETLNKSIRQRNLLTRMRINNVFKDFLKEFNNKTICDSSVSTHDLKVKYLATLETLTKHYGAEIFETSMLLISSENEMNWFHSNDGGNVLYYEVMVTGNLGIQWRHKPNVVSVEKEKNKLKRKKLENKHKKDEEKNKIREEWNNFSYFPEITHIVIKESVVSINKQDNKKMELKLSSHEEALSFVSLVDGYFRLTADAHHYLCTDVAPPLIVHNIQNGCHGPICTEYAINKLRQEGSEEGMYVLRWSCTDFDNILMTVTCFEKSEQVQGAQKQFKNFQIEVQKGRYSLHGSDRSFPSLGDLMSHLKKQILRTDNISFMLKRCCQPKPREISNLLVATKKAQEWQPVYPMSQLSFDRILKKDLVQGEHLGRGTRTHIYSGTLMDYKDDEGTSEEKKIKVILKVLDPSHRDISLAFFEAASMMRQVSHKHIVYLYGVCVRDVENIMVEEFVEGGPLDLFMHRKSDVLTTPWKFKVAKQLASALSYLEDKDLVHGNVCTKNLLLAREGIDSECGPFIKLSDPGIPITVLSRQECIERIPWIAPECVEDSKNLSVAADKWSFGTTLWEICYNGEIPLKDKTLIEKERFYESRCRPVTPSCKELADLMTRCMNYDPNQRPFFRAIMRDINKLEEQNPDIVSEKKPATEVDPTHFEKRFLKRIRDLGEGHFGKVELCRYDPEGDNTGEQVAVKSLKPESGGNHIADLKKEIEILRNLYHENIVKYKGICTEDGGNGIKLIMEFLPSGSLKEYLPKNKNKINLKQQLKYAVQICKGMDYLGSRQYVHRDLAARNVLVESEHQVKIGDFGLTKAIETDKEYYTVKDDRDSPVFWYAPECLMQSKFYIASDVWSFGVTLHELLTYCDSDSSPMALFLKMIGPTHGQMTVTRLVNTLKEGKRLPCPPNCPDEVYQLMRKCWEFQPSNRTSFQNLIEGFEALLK

`Cn1cc(-n2cnc3c(NCc4nc5cc(Cl)c(Cl)cc5[nH]4)nc(N4CCOCC4)nc32)cn1`: the % of inhibition in experiment [1] is -25.4%.
For `CC(=O)c1cc(-c2ccccc2OCC2CC2)c2ncccn12`, the % of control in [2] is 87%.
In [3], `O=C(NOC[C@H](O)CO)c1ccc(F)c(F)c1Nc1ccc(I)cc1F` registered a % of control of 76%.
For the compound `CC[C@@H]1[C@H](F)C(=O)N[C@@H]1COc1nccc2cc(C(N)=O)c(OC)cc12` [ZIMLOVISERTIB], the % of inhibition in experiment [4] (at 0.01 µM) was -1%; in [4] (at 0.04 µM) it was -2%; in [4] (at 0.2 µM), 1.3%; in [4] (at 1 µM), 7.2%; in [4] (at 5 µM), -13.1%.
Take `Cn1cc(Nc2nccc(N3CC4CCC(C3)N4C(=O)[C@@H]3CC3(F)F)n2)cn1`: the % of inhibition in experiment [5] amounted to 59%.
As to `Cc1ccc(-c2ccc3c(ccc4sc5c(c43)NC[C@@H](C)NC5=O)n2)cn1`, the % of inhibition on Misshapen-like kinase 1 was 11%.
With `O[C@H]1CC[C@H](Nc2ncc3nc(Nc4c(F)cc(F)cc4F)n([C@H]4CCOC4)c3n2)CC1`, the % of control was 100% in experiment [6] and 80% in experiment [7].
On to `CCC(=O)N1CCN(c2ccc(-n3c(=O)ccc4cnc5ccc(-c6cnc7ccccc7c6)cc5c43)cc2C(F)(F)F)CC1`, for which the % of control in experiment [8] stood at 86%.
`COc1cc(N(C)c2ccnc3ccc(C(F)(F)F)cc23)cc(OC)c1OC` displayed a Kd in experiment [9] of more than 10 µM.
With `C=CC(=O)Nc1ccc(C(=O)Nc2[nH]nc3c2CN(C(=O)N[C@H](CN(C)C)c2ccccc2)C3(C)C)cc1`, the % of engagement in experiment [10] was -15.7%; in experiment [11], 7.9%.

The record behind these values is ChEMBL document CHEMBL5465560, “Selectivity Literature for EUbOPEN Chemogenomic Library” (2024).
